Source: the NIST ThermoML archive (doi:10.1021/je900744x)
Numbers after ± are expanded uncertainties.

Settings: Liquid, Closed cell (Static) method

Compound | vapor or sublimation pressure (254.31 K) [kPa] | vapor or sublimation pressure (259.27 K) [kPa] | vapor or sublimation pressure (269.26 K) [kPa] | vapor or sublimation pressure (279.47 K) [kPa] | vapor or sublimation pressure (287.94 K) [kPa]
CC(F)F [1,1-difluoroethane] | 127 ± 10 | 156 ± 10 | 231 ± 10 | 331 ± 10 | 437 ± 10
CCC [propane] | 257 ± 10 | 303 ± 10 | 422 ± 10 | 574 ± 10 | 727 ± 10
